This passage reports IC50 and Log10 reduction results from ChEMBL document CHEMBL2040548, “Anti-influenza virus activities of 4-substituted 2,4-dioxobutanoic acid inhibitors” (Antimicrob Agents Chemother, 1996).

Each structure is given as a SMILES string.

Experiment [1] deals with Polymerase acidic protein (Influenza A virus (A/Puerto Rico/8/1934(H1N1)), UniProt P03433). The experiment is described as follows: Inhibition of cap 1 ALMV primed Influenza transcriptase.
The target of experiment [2] is Polymerase acidic protein (Influenza A virus (strain A/Hong Kong/1/1968 H3N2)) (UniProt Q91MA9). The experiment is described as follows: Upper respiratory tract challenge. The class given is functional, organism-based. The conditions noted are these: Mus musculus.

Turning to `O=C(O)/C(O)=C/C(=O)C1(Cc2ccc(Cl)cc2)CCN(Cc2ccc(Cl)cc2)CC1`, the IC50 in experiment [1] turned out to be 0.54 µM.
On to `CC(=O)N[C@@H]1[C@@H](NC(=N)N)C=C(C(=O)O)O[C@@]1(C)[C@H](O)[C@H](O)CO`, for which the Log10 reduction in experiment [2] is 4.3.
